Measurements as given in US20240384268A1, “Oligonucleotides” (Hudson Institute of Medical Research, priority 2021, published 2024).
In the oligonucleotide strings, read from the 5' end, every base follows the letter of its sugar. An asterisk marks phosphorothioate; unmarked linkages are phosphodiester. Other units and linkages are bracketed, terminal groups are in braces. A string of capitals states the bases alone. d = 2'-deoxy (DNA); m = 2'-O-methyl

Molecular target: T1, human TLR7 (Homo sapiens, UniProt Q9NYK1)
T1 construct: HA; host or cells: 293XL-hTLR7-HA (HEK293)
T1 sequence (Q9NYK1 27-1049): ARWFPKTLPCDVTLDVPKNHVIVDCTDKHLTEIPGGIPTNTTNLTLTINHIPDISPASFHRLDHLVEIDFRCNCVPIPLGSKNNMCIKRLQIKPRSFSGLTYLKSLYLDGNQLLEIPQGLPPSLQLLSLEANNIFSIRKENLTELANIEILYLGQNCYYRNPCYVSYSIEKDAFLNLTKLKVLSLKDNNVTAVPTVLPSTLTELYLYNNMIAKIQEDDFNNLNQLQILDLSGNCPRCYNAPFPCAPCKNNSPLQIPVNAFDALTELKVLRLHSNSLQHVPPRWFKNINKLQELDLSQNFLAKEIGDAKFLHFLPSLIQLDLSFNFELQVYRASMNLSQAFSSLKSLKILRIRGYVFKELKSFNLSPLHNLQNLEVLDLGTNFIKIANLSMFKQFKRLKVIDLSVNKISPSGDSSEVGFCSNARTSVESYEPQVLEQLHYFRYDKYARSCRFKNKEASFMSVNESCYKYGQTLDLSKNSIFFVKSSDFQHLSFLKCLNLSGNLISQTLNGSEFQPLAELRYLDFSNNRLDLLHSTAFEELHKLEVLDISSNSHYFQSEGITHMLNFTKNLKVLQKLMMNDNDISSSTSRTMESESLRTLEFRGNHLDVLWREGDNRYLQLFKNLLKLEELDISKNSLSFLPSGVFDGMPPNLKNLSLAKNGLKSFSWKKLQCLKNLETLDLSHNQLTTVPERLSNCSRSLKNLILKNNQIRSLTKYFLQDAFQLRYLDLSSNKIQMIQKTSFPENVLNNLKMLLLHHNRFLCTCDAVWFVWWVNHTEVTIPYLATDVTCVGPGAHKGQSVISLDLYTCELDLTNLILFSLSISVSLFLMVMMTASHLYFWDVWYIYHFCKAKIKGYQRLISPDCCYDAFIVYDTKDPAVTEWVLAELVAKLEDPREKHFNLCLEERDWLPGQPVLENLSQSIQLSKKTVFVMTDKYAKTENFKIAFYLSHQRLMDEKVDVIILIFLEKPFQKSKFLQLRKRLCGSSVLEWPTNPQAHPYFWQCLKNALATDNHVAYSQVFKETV
Assay: HEK-TLR7 NF-κB-luciferase reporter, R848 stimulation
Format: cell-based
Conditions: for TLR7 100 nM (averaged NF-κB-Luciferase level relative to R848 condition): ASO 100 nM; for TLR7 100 nM (averaged NF-κB-Luciferase level relative to R848 condition) / TLR7 500 nM (averaged NF-κB-Luciferase level relative to R848 condition): relative to R848 only, given as fraction; for TLR7 500 nM (averaged NF-κB-Luciferase level relative to R848 condition): ASO 500 nM; for TLR7-100 nM: averaged NF-κB-Luciferase relative to R848: HEK-TLR7, 100 nM ASO, percentage of R848 without ASO (Alharbi et al., 2020)

GATGGCCTCCCATCTC (antisense; LNA-modified, pattern not given here) [HPRT LNA-331 V1]
TLR7 100 nM (averaged NF-κB-Luciferase level relative to R848 condition): 0.558 | TLR7 500 nM (averaged NF-κB-Luciferase level relative to R848 condition): 0.119

GCACACTTCGTACCCA (antisense; LNA-modified, pattern not given here) [CAMSAP1-4915 LNA V1]
TLR7 100 nM (averaged NF-κB-Luciferase level relative to R848 condition): 0.657 | TLR7 500 nM (averaged NF-κB-Luciferase level relative to R848 condition): 0.221

GCACTTCAGTCTGAGC (antisense; LNA-modified, pattern not given here) [MB21D1-719 LNA KL]
TLR7 100 nM (averaged NF-κB-Luciferase level relative to R848 condition): 0.713 | TLR7 500 nM (averaged NF-κB-Luciferase level relative to R848 condition): 0.168

GGAGGTCTTGGCTTCG (antisense; LNA-modified, pattern not given here) [MB21D1-526 LNA V1]
TLR7 100 nM (averaged NF-κB-Luciferase level relative to R848 condition): 0.503 | TLR7 500 nM (averaged NF-κB-Luciferase level relative to R848 condition): 0.119

GGCACTTTGCCTCCTT (antisense; LNA-modified, pattern not given here) [EGFR-2859 LNA V1]
TLR7 100 nM (averaged NF-κB-Luciferase level relative to R848 condition): 0.774 | TLR7 500 nM (averaged NF-κB-Luciferase level relative to R848 condition): 0.668

GGCTCGGCTTGCCTAC (antisense; LNA-modified, pattern not given here) [CAMSAP1-5594 LNA V1]
TLR7 100 nM (averaged NF-κB-Luciferase level relative to R848 condition): 0.569 | TLR7 500 nM (averaged NF-κB-Luciferase level relative to R848 condition): 0.186

GGTCATTACAATAGCT (antisense; LNA-modified, pattern not given here) [HPRT LNA-475 KL]
TLR7 100 nM (averaged NF-κB-Luciferase level relative to R848 condition): 0.580 | TLR7 500 nM (averaged NF-κB-Luciferase level relative to R848 condition): 0.049

GGTCTTGGCTTCGTGG (antisense; LNA-modified, pattern not given here) [MB21D1-523 LNA V1]
TLR7 100 nM (averaged NF-κB-Luciferase level relative to R848 condition): 0.481 | TLR7 500 nM (averaged NF-κB-Luciferase level relative to R848 condition): 0.042

GTCAAGGGCATATCCT (antisense; LNA-modified, pattern not given here) [HPRT LNA-732 KL]
TLR7 100 nM (averaged NF-κB-Luciferase level relative to R848 condition): 0.650 | TLR7 500 nM (averaged NF-κB-Luciferase level relative to R848 condition): 0.142

GTCCTTGCACGTGGCT (antisense; LNA-modified, pattern not given here) [EGFR-1015 LNA V1]
TLR7 100 nM (averaged NF-κB-Luciferase level relative to R848 condition): 0.471 | TLR7 500 nM (averaged NF-κB-Luciferase level relative to R848 condition): 0.251

GTCTCTGGAGCTTCCT (antisense; LNA-modified, pattern not given here) [CAMSAP1-2456 LNA V1]
TLR7 100 nM (averaged NF-κB-Luciferase level relative to R848 condition): 0.477 | TLR7 500 nM (averaged NF-κB-Luciferase level relative to R848 condition): 0.084

GTCTTCATCGGCCCTG (antisense; LNA-modified, pattern not given here) [CAMSAP1-2113 LNA V1]
TLR7 100 nM (averaged NF-κB-Luciferase level relative to R848 condition): 0.641 | TLR7 500 nM (averaged NF-κB-Luciferase level relative to R848 condition): 0.119

GTGATCTTGACATGCT (antisense; LNA-modified, pattern not given here) [EGFR-2790 LNA KL]
TLR7 100 nM (averaged NF-κB-Luciferase level relative to R848 condition): 0.438 | TLR7 500 nM (averaged NF-κB-Luciferase level relative to R848 condition): 0.060

GTGATGGCCTCCCATC (antisense; LNA-modified, pattern not given here) [HPRT LNA-333 V1]
TLR7 100 nM (averaged NF-κB-Luciferase level relative to R848 condition): 0.665 | TLR7 500 nM (averaged NF-κB-Luciferase level relative to R848 condition): 0.139

TACTTTCCGAGGTGTC (antisense; LNA-modified, pattern not given here) [CAMSAP1-1739 LNA KL]
TLR7 100 nM (averaged NF-κB-Luciferase level relative to R848 condition): 0.738 | TLR7 500 nM (averaged NF-κB-Luciferase level relative to R848 condition): 0.451

TCCACAATCAAGACAT (antisense; LNA-modified, pattern not given here) [HPRT LNA-551 KL]
TLR7 100 nM (averaged NF-κB-Luciferase level relative to R848 condition): 0.863 | TLR7 500 nM (averaged NF-κB-Luciferase level relative to R848 condition): 0.533

TCCATACCCAAGGCAT (antisense; LNA-modified, pattern not given here) [CTNN2B-2446 LNA V1]
TLR7 100 nM (averaged NF-κB-Luciferase level relative to R848 condition): 1.056 | TLR7 500 nM (averaged NF-κB-Luciferase level relative to R848 condition): 0.494

TCCGCCCAAAGGGAAC (antisense; LNA-modified, pattern not given here) [HPRT LNA-1027 KL]
TLR7 100 nM (averaged NF-κB-Luciferase level relative to R848 condition): 0.860 | TLR7 500 nM (averaged NF-κB-Luciferase level relative to R848 condition): 0.543

TCCTTGCACGTGGCTT (antisense; LNA-modified, pattern not given here) [EGFR-1014 LNA V1]
TLR7 100 nM (averaged NF-κB-Luciferase level relative to R848 condition): 0.812 | TLR7 500 nM (averaged NF-κB-Luciferase level relative to R848 condition): 0.482

TCGTGGGGTCCTTTTC (antisense; LNA-modified, pattern not given here) [HPRT LNA-660 V1]
TLR7 100 nM (averaged NF-κB-Luciferase level relative to R848 condition): 0.540 | TLR7 500 nM (averaged NF-κB-Luciferase level relative to R848 condition): 0.318

TCTTCATCGGCCCTGC (antisense; LNA-modified, pattern not given here) [CAMSAP1-2112 LNA V1]
TLR7 100 nM (averaged NF-κB-Luciferase level relative to R848 condition): 0.820 | TLR7 500 nM (averaged NF-κB-Luciferase level relative to R848 condition): 0.511

TCTTGGCTTCGTGGAG (antisense; LNA-modified, pattern not given here) [MB21D1-521 LNA V1]
TLR7 100 nM (averaged NF-κB-Luciferase level relative to R848 condition): 1.033 | TLR7 500 nM (averaged NF-κB-Luciferase level relative to R848 condition): 0.288

TGACAAAGATTCACTG (antisense; LNA-modified, pattern not given here) [HPRT LNA-1353 KL]
TLR7 100 nM (averaged NF-κB-Luciferase level relative to R848 condition): 1.040 | TLR7 500 nM (averaged NF-κB-Luciferase level relative to R848 condition): 0.430

TGACTGTCTTGAGGGT (antisense; LNA-modified, pattern not given here) [MB21D1-1483 LNA KL]
TLR7 100 nM (averaged NF-κB-Luciferase level relative to R848 condition): 0.802 | TLR7 500 nM (averaged NF-κB-Luciferase level relative to R848 condition): 0.150

TGCTCCTCGGTCTCCC (antisense; LNA-modified, pattern not given here) [CAMSAP1-1850 LNA V1]
TLR7 100 nM (averaged NF-κB-Luciferase level relative to R848 condition): 0.751 | TLR7 500 nM (averaged NF-κB-Luciferase level relative to R848 condition): 0.595

TGGTCCACAACCCCTT (antisense; LNA-modified, pattern not given here) [MB21D1-697 LNA V1]
TLR7 100 nM (averaged NF-κB-Luciferase level relative to R848 condition): 1.008 | TLR7 500 nM (averaged NF-κB-Luciferase level relative to R848 condition): 0.545

TGGTGGCCACCCATCT (antisense; LNA-modified, pattern not given here) [CTNN2B-2479 LNA V1]
TLR7 100 nM (averaged NF-κB-Luciferase level relative to R848 condition): 0.957 | TLR7 500 nM (averaged NF-κB-Luciferase level relative to R848 condition): 0.393

TGTCCTTGCACGTGGC (antisense; LNA-modified, pattern not given here) [EGFR-1016 LNA V1]
TLR7 100 nM (averaged NF-κB-Luciferase level relative to R848 condition): 0.502 | TLR7 500 nM (averaged NF-κB-Luciferase level relative to R848 condition): 0.199

TGTCTGGAAGCTTCCT (antisense; LNA-modified, pattern not given here) [CTNN2B-808 LNA V1]
TLR7 100 nM (averaged NF-κB-Luciferase level relative to R848 condition): 0.495 | TLR7 500 nM (averaged NF-κB-Luciferase level relative to R848 condition): 0.278

TTCAGGCGCTGCCTTG (antisense; LNA-modified, pattern not given here) [CAMSAP1-2709 LNA V1]
TLR7 100 nM (averaged NF-κB-Luciferase level relative to R848 condition): 0.642 | TLR7 500 nM (averaged NF-κB-Luciferase level relative to R848 condition): 0.181

mA*mA*mA*mG*mC*A*G*T*C*T*C*C*A*T*G*mU*mC*mC*mC*mA (mA*mA*mA*mG*mC*dA*dG*dT*dC*dT*dC*dC*dA*dT*dG*mU*mC*mC*mC*mA; antisense) [[CDKN2B-AS1]2237]
TLR7-100 nM: averaged NF-κB-Luciferase relative to R848: 27.16%

mA*mA*mG*mC*mA*G*T*C*T*C*C*A*T*G*T*mC*mC*mC*mA*mG (mA*mA*mG*mC*mA*dG*dT*dC*dT*dC*dC*dA*dT*dG*dT*mC*mC*mC*mA*mG; antisense) [[CDKN2B-AS1]2236]
TLR7-100 nM: averaged NF-κB-Luciferase relative to R848: 35.69%

mA*mG*mC*mA*mG*T*C*T*C*C*A*T*G*T*C*mC*mC*mA*mG*mG (AGCAGTCTCCATGTCCCAGG; antisense; sugars from the 5' end m5 d10 m5, all phosphorothioate, methylation of C not given here) [[CDKN2B-AS1]2235]
TLR7-100 nM: averaged NF-κB-Luciferase relative to R848: 25.50%

mA*mG*mU*mC*mU*C*C*A*T*G*T*C*C*C*A*mG*mG*mC*mC*mU (mA*mG*mU*mC*mU*dC*dC*dA*dT*dG*dT*dC*dC*dC*dA*mG*mG*mC*mC*mU; antisense) [[CDKN2B-AS1]2232]
TLR7-100 nM: averaged NF-κB-Luciferase relative to R848: 35.77%
